Results: ChEMBL document CHEMBL5532675, “Discovery of 4-Ethoxy-6-chloro-5-azaindazoles as Novel PDE4 Inhibitors for the Treatment of Alcohol Use Disorder and Alcoholic Liver Diseases” (J Med Chem, 2024)
The source made the active and inactive calls. The rule behind the calls is not given here.

Key:
[1] = molecular target: 3',5'-cyclic-AMP phosphodiesterase 4B (Homo sapiens, UniProt Q07343); test: Inhibition of PDE4B1 (unknown origin) using FAM-cyclic-3',5'-AMP as substrate incubated for 1 hrs by fluorescence polarization based IMAP assay
[2] = molecular target: T1, 3',5'-cyclic-AMP phosphodiesterase 4D (Homo sapiens, UniProt Q08499); test: Inhibition of PDE4D7 (unknown origin) using FAM-cyclic-3',5'-AMP as substrate at 100 nM incubated for 1 hrs by fluorescence polarization based IMAP assay relative to control
[3] = molecular target: T1, 3',5'-cyclic-AMP phosphodiesterase 4D; test: Inhibition of PDE4D7 (unknown origin) using FAM-cyclic-3',5'-AMP as substrate at 10 nM incubated for 1 hrs by fluorescence polarization based IMAP assay relative to control
SH-SY5Y = test: Cytotoxicity against human SH-SY5Y cells assessed as reduction in cell viability incubated for 48 hrs by MTT assay; assay type: toxicity, cell-based
[4] = Chemical stability of compound in aqueous solution at pH <6 measured after 48 hrs; assay type: physicochemical; details: buffer
[5] = Chemical stability of compound in aqueous solution at pH >10 measured after 48 hrs; assay type: physicochemical; details: buffer
[6] = Acute toxicity in C57BL/6J mouse assessed as poisoning symptoms at 1 g/Kg, po administered for 14 days; assay type: organism-based; details: in vivo, 1000 mg/kg, 336 h, time 14 day
[7] = Selectivity ratio for inhibition of PDE8A1 (unknown origin) using FAM-cyclic-3',5'-AMP as substrate to inhibition of PDE4B1 (unknown origin) using FAM-cyclic-3',5'-AMP as substrate
[8] = molecular target: cGMP-inhibited 3',5'-cyclic phosphodiesterase 3B (Homo sapiens) (UniProt Q13370); test: Inhibition of PDE3B (unknown origin) using FAM-cyclic-3',5'-AMP as substrate at 10 uM incubated for 1 hrs by fluorescence polarization based IMAP assay relative to control
[9] = molecular target: High affinity 3',5'-cyclic-AMP phosphodiesterase 7A (Homo sapiens) (UniProt Q13946); test: Inhibition of PDE7A (unknown origin) using FAM-cyclic-3',5'-AMP as substrate at 10 uM incubated for 1 hrs by fluorescence polarization based IMAP assay relative to control
[10] = Selectivity ratio for inhibition of PDE3B (unknown origin) using FAM-cyclic-3',5'-AMP as substrate to inhibition of PDE4D7 (unknown origin) using FAM-cyclic-3',5'-AMP as substrate
[11] = Selectivity ratio for inhibition of PDE9A (unknown origin) using FAM-cyclic-3',5'-AMP as substrate to inhibition of PDE4D7 (unknown origin) using FAM-cyclic-3',5'-AMP as substrate
[12] = Acute toxicity in C57BL/6J mouse assessed as druggability at 1 g/Kg, po administered for 14 days; assay type: organism-based; details: in vivo, 1000 mg/kg, 336 h, time 14 day
[13] = Drug concentration in Sprague-Dawley rat plasma at 10 mg/kg, po administered as single dose for 2 hrs by LC-MS analysis; assay type: ADME, organism-based
[14] = Drug concentration in Sprague-Dawley rat liver at 10 mg/kg, po administered as single dose for 1 hrs by LC-MS analysis; assay type: ADME, organism-based; details: read-out: Ct
[15] = Drug concentration in Sprague-Dawley rat brain at 10 mg/kg, po administered as single dose for 1 hrs by LC-MS analysis; assay type: ADME, organism-based; details: read-out: Ct
[16] = AUC (0 to infinity) in Sprague-Dawley rat at 2 mg/kg, iv measured after 24 hrs by LC-MS analysis; assay type: ADME, organism-based; details: in vivo
[17] = Tmax in Sprague-Dawley rat at 10 mg/kg, po measured after 24 hrs by LC-MS analysis; assay type: ADME, organism-based; details: in vivo
[18] = AUC (0 to t) in Sprague-Dawley rat at 10 mg/kg, po measured after 24 hrs by LC-MS analysis; assay type: ADME, organism-based; details: in vivo
[19] = Toxicity in ketamine/xylazine-induced anesthetic C57BL/6J mouse model assessed as emetogenic potential by measuring reduction in anesthesia duration at 1 to 5 mg/kg, po preadministered with compound for 15 mins followed by ketamine/xylazine administration; assay type: organism-based; details: in vivo, 0.25 h, dose 1-5 mg/kg
Mus musculus [20] = test: Protection against alcohol use disorder in C57BL/6J mouse model assessed as decrease in alcohol intake at 1 to 2.5 mg/kg, po pre-trained with alcohol and water for 42 days with subsequent compound addition on day 22 and measured after 3 weeks by two-bottle choice test; assay type: functional, organism-based; details: dose 1-2.5 mg/kg
Mus musculus [21] = test: Protection against alcohol use disorder in C57BL/6J mouse model assessed as decrease in alcohol intake at 1 to 2.5 mg/kg, po pre-trained with alcohol and water for 42 days with subsequent compound addition from day 22 to day 42 followed by 3.5 hrs of darkness and compound administration for 30 mins followed by water replacement with alcohol for 4 hrs on day 46 by Drink-in-Dark test; assay type: functional, organism-based; details: dose 1-2.5 mg/kg, time 23.0 day
Mus musculus [22] = test: (§1) Protection against alcohol-induced motor impairment in C57BL/6J mouse model assessed as short recovery time by measuring latency to falling off at 1 mg/kg, po preadministered with compound every 24 hrs for 3 times followed by alcohol administration 30 mins post last dose and further treated with compound for 3 days followed by alcohol administration 30 mins post last dose and measured at 2 to 20 mins by rotarod test; assay type: functional, organism-based; details: time 8702-8720 min
Mus musculus [23] = test: as §1, with “increase in distance travelled” for “short recovery time by measuring latency to falling off”, “1 to 2.5” for “1”, “open field” for “rotarod”; assay type: functional, organism-based; details: dose 1-2.5 mg/kg, time 8702-8720 min
Mus musculus [24] = test: (§2) Protection against alcoholic liver disease in NIAAA C57BL/6J mouse model assessed as improvement of steatosis at 1 to 2.5 mg/kg, po preadministered with 1 to 4 % of alcohol for 10 days with subsequent compound addition from day 6 to 11 and further administered with 31.25 % alcohol on day 11 and measured after 9 hrs by H&E staining based light microscopic analysis; assay type: functional, organism-based; details: dose 1-2.5 mg/kg, time 5.0 day
Mus musculus [25] = test: as §2, with “Oil Red O” for “H&E”; assay type: functional, organism-based; details: dose 1-2.5 mg/kg, time 5.0 day
Mus musculus [26] = test: as §2, with “reduction in serum IL-6 level” for “improvement of steatosis”, “ELISA” for “H&E staining based light microscopic analysis”; assay type: functional, organism-based; details: dose 1-2.5 mg/kg, time 5.0 day
Mus musculus [27] = test: as §2, with “reduction in serum TNF-alpha level” for “improvement of steatosis”, “ELISA” for “H&E staining based light microscopic analysis”; assay type: functional, organism-based; details: dose 1-2.5 mg/kg, time 5.0 day
Mus musculus [28] = test: as §2, with “reduction in liver TNF-alpha mRNA level” for “improvement of steatosis”, “RT-qPCR” for “H&E staining based light microscopic”; assay type: functional, organism-based; details: dose 1-2.5 mg/kg, time 5.0 day
Mus musculus [29] = test: as §2, with “reduction in liver IL-6 mRNA level” for “improvement of steatosis”, “RT-qPCR” for “H&E staining based light microscopic”; assay type: functional, organism-based; details: dose 1-2.5 mg/kg, time 5.0 day
Mus musculus [30] = test: as §2, with “reduction in liver IL-1beta mRNA level” for “improvement of steatosis”, “RT-qPCR” for “H&E staining based light microscopic”; assay type: functional, organism-based; details: dose 1-2.5 mg/kg, time 5.0 day

T1 sequence (Q08499 whole entry): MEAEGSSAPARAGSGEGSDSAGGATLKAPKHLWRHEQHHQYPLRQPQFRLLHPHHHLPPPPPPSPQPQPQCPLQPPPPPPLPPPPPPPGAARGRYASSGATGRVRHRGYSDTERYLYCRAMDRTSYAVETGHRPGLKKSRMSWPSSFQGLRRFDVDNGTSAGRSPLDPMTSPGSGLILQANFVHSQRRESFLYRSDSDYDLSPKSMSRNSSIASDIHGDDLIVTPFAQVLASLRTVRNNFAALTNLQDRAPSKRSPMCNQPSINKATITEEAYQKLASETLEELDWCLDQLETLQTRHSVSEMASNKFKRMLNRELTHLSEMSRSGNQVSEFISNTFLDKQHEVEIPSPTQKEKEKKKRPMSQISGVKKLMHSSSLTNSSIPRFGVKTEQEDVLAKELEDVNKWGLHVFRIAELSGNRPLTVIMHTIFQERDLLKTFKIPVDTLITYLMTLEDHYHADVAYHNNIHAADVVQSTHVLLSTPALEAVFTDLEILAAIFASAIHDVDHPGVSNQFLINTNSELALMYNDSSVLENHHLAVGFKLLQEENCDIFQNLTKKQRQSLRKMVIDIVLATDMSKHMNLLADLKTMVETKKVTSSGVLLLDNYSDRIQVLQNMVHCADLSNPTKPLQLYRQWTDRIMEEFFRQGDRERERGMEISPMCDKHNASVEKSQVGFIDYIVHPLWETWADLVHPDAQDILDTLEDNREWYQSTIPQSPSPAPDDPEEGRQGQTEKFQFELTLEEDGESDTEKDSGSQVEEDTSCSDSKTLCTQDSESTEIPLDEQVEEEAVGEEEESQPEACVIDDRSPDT
Sequence of High affinity 3',5'-cyclic-AMP phosphodiesterase 7A (Homo sapiens) (Q13946 whole entry): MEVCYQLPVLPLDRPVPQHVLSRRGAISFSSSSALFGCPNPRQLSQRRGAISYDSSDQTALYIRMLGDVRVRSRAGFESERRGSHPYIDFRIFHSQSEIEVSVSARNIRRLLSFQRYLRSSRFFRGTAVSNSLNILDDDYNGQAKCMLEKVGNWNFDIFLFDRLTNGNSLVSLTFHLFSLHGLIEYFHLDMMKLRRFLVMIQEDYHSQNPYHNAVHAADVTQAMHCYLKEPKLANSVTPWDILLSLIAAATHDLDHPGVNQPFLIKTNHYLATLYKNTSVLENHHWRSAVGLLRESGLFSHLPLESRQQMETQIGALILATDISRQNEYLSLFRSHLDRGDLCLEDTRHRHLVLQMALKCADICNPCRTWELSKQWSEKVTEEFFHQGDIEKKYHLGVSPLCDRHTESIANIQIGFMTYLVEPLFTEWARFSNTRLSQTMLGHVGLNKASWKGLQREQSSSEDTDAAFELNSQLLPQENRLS
Sequence of 3',5'-cyclic-AMP phosphodiesterase 4B (Q07343 whole entry): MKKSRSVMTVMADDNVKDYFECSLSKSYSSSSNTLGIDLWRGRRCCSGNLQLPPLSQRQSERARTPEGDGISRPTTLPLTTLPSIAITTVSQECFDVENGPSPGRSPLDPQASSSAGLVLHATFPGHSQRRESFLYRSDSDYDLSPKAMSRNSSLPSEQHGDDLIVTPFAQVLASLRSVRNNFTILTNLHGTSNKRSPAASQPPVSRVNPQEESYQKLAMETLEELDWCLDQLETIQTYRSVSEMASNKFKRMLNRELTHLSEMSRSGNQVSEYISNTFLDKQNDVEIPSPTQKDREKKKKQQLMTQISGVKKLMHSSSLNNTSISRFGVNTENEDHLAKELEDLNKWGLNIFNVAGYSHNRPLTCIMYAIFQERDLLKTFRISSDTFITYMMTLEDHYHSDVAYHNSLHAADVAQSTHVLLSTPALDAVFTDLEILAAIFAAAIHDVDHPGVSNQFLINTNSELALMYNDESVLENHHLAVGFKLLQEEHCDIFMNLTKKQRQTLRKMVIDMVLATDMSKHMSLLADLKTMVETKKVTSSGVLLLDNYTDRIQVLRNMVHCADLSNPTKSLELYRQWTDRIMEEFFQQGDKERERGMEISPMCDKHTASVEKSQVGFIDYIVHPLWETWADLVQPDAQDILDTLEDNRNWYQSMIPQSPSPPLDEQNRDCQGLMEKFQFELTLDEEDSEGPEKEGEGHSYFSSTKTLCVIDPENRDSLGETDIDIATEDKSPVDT
Sequence of cGMP-inhibited 3',5'-cyclic phosphodiesterase 3B (Homo sapiens) (Q13370 whole entry, looked up): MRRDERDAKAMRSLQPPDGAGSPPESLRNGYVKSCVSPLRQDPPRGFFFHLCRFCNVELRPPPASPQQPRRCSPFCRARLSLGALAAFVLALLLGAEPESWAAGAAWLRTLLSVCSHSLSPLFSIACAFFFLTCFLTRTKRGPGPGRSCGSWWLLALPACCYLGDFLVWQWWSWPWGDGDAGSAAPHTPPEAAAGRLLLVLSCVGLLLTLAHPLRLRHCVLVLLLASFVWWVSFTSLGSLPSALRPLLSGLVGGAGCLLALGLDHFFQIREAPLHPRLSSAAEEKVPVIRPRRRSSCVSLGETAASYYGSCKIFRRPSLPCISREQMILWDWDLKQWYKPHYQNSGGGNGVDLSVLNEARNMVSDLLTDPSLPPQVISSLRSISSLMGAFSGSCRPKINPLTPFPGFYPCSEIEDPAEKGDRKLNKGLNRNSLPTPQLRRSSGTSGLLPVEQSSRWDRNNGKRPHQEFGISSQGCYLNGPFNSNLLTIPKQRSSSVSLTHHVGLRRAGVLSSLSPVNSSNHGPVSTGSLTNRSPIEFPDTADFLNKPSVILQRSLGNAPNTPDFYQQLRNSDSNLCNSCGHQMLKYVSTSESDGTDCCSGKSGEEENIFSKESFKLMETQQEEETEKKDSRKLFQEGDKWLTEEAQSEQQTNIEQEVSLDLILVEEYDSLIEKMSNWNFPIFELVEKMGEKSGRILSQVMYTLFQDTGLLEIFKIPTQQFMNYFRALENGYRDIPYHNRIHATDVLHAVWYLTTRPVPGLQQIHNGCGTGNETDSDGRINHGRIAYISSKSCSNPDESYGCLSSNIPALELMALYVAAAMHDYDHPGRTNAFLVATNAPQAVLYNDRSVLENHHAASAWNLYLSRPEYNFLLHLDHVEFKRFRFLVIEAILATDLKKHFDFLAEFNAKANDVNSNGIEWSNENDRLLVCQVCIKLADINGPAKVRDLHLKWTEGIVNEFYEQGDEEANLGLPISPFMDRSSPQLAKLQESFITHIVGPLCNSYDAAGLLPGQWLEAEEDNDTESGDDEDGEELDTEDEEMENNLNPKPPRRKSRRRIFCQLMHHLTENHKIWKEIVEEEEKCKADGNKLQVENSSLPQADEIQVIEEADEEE

Question: Which results are given for `CCOc1nc(Cl)cc2c1cnn2CCCC(=O)O`?
Answer: IC50 [1]: 31 nM; inhibition [2]: 72%; inhibition [3]: 21%; Activity (SH-SY5Y): Non-Toxic; Stability [4]: Stable; Stability [5]: Stable; Activity [6]: Non-Toxic; Selectivity ratio [7]: > 267; inhibition [8]: 10%; inhibition [9]: 11%; Selectivity ratio [10]: > 267; Selectivity ratio [11]: > 267; Activity [12]: Non-Toxic; concentration at 2 h [13]: 27000 ng/mL; concentration at 1 h [14]: 11200 ng/g; concentration at 1 h [15]: 322 ng/g; AUC(0-inf) [16]: 143 µg·h/mL; Tmax [17]: 4 h; AUC(0-t) at 24 h [18]: 669 µg·h/mL; Activity [19]: Non-Toxic; Activity (Mus musculus [20]): Active; Activity (Mus musculus [21]): Active; Activity (Mus musculus [22]): inactive; Activity (Mus musculus [23]): Active; Activity (Mus musculus [24]): Active; Activity (Mus musculus [25]): Active; Activity (Mus musculus [26]): Active; Activity (Mus musculus [27]): Active; Activity (Mus musculus [28]): Active; Activity (Mus musculus [29]): Active; Activity (Mus musculus [30]): Active
